Source: publication PMC2248166, “Quantitative peptide binding motifs for 19 human and mouse MHC class I molecules derived using positional scanning combinatorial peptide libraries” (Immunome Research, 2008)
Where a SMILES comes first, the peptide text is derived from it.

Target: HLA A*3001 (Homo sapiens, UniProt P04439, D140H/D185E/E176W/F33S/G80R/H175R/K168Q/R138E/R41S)
Assay: biochemical
Format: binding

Chain of HLA A*3001 (P04439 25-365 limits assumed, stated change not applied): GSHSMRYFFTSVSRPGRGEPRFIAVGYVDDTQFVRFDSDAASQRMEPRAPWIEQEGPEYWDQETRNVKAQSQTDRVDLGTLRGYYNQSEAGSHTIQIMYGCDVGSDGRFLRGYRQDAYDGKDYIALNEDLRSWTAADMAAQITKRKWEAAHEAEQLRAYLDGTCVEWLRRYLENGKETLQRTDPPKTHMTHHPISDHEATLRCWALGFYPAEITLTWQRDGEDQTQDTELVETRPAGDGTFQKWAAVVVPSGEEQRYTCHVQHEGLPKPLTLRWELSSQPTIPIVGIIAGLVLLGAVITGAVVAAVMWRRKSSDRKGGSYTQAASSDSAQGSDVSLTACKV

| Structure (SMILES) | IC50 [nM] |
| --- | --- |
| CC[C@H](C)[C@H](NC(=O)[C@H](Cc1ccc(O)cc1)NC(=O)[C@H](C)NC(=O)[C@H](C)NC(=O)[C@H](Cc1c[nH]cn1)NC(=O)[C@H](CO)NC(=O)[C@H](CCCCN)NC(=O)[C@H](CO)NC(=O)[C@@H](N)CCSC)C(=O)O [3102.0207] (H-MSKSHAAYI-OH) | 0.23 |
| CC(C)C[C@H](NC(=O)[C@@H](N)CCCNC(=N)N)C(=O)N[C@@H](CCCCN)C(=O)N[C@@H](CC(=O)O)C(=O)N[C@@H](Cc1ccc(O)cc1)C(=O)N[C@@H](CCC(N)=O)C(=O)N[C@@H](Cc1c[nH]cn1)C(=O)N[C@@H](Cc1ccccc1)C(=O)N[C@H](C(=O)O)C(C)C [3102.0208] (H-RLKDYQHFV-OH) | 0.39 |
| CSCC[C@H](N)C(=O)NCC(=O)N[C@@H](CCCNC(=N)N)C(=O)N[C@@H](Cc1ccccc1)C(=O)NCC(=O)N[C@@H](Cc1ccc(O)cc1)C(=O)N[C@H](C(=O)N1CCC[C@H]1C(=O)N[C@@H](Cc1ccc(O)cc1)C(=O)O)C(C)C [3102.0212] (H-MGRFGYVPY-OH) | 15 |
| CC[C@H](C)[C@H](NC(=O)[C@@H](N)CO)C(=O)N[C@@H](CCCCN)C(=O)N[C@@H](CCCNC(=N)N)C(=O)N[C@@H](CO)C(=O)N[C@@H](CC(N)=O)C(=O)N[C@H](C(=O)N[C@@H](Cc1ccccc1)C(=O)N[C@@H](C)C(=O)O)C(C)C [3102.0214] (H-SIKRSNVFA-OH) | 3.6 |
| CC(C)C[C@H](NC(=O)[C@@H]1CCCN1C(=O)[C@H](Cc1c[nH]cn1)NC(=O)[C@@H](NC(=O)[C@H](CS)NC(=O)[C@H](CCCCN)NC(=O)[C@@H](NC(=O)[C@@H](N)CO)C(C)C)[C@@H](C)O)C(=O)N[C@H](C(=O)O)C(C)C [3102.0215] (H-SVKCTHPLV-OH) | 0.97 |
| CC[C@H](C)[C@H](NC(=O)[C@H](CCCNC(=N)N)NC(=O)[C@@H]1CCCN1C(=O)[C@H](CO)NC(=O)[C@H](C)NC(=O)[C@H](CCCNC(=N)N)NC(=O)[C@H](CO)NC(=O)[C@@H](N)Cc1c[nH]cn1)C(=O)NCC(=O)O [3102.0216] (H-HSRASPRIG-OH) | 0.93 |
| CSCC[C@H](NC(=O)[C@H](CC(C)C)NC(=O)[C@H](CCCNC(=N)N)NC(=O)[C@H](C)NC(=O)[C@@H](N)CC(N)=O)C(=O)N[C@@H](CCCNC(=N)N)C(=O)N[C@@H](C)C(=O)N[C@@H](CC(C)C)C(=O)N[C@@H](CCCCN)C(=O)O [3102.0218] (H-NARLMRALK-OH) | 2.2 |
| CSCC[C@H](NC(=O)[C@H](Cc1ccc(O)cc1)NC(=O)[C@H](CC(N)=O)NC(=O)[C@H](Cc1ccc(O)cc1)NC(=O)[C@H](CO)NC(=O)[C@H](CCCCN)NC(=O)[C@@H](NC(=O)[C@@H](N)CCCCN)C(C)C)C(=O)N[C@@H](CC(C)C)C(=O)O [3102.0219] (H-KVKSYNYML-OH) | 0.18 |
| CC(C)C[C@H](NC(=O)[C@@H](N)CCCNC(=N)N)C(=O)N[C@@H](CCCCN)C(=O)N[C@@H](CO)C(=O)N[C@@H](C)C(=O)N[C@H](C(=O)N[C@@H](CS)C(=O)N[C@@H](Cc1ccc(O)cc1)C(=O)N[C@@H](CCCCN)C(=O)O)C(C)C [3102.0220] (H-RLKSAVCYK-OH) | 0.18 |
| C[C@@H](O)[C@H](N)C(=O)N[C@@H](Cc1ccccc1)C(=O)N[C@@H](CCCNC(=N)N)C(=O)N[C@@H](CCC(=O)O)C(=O)N[C@@H](CCCNC(=N)N)C(=O)N[C@@H](Cc1ccc(O)cc1)C(=O)N[C@@H](CO)C(=O)N[C@@H](Cc1ccc(O)cc1)C(=O)N[C@@H](CCCCN)C(=O)O [3102.0221] (H-TFRERYSYK-OH) | 0.89 |
| CC[C@H](C)[C@H](NC(=O)[C@H](CC(N)=O)NC(=O)[C@@H]1CCCN1C(=O)[C@@H](NC(=O)[C@H](Cc1c[nH]cn1)NC(=O)[C@H](CC(N)=O)NC(=O)[C@H](CCCCN)NC(=O)[C@@H](NC(=O)[C@@H](N)CCCCN)C(C)C)[C@@H](C)CC)C(=O)O [3102.0222] (H-KVKNHIPNI-OH) | 0.68 |
| C[C@H](NC(=O)[C@H](C)NC(=O)[C@H](CC(N)=O)NC(=O)[C@H](CCC(N)=O)NC(=O)[C@@H]1CCCN1C(=O)[C@H](CC(=O)O)NC(=O)[C@H](CCCNC(=N)N)NC(=O)[C@@H](NC(=O)[C@@H](N)Cc1c[nH]cn1)[C@@H](C)O)C(=O)O [3102.0224] (H-HTRDPQNAA-OH) | 0.91 |
| CC[C@H](C)[C@H](NC(=O)[C@@H](NC(=O)[C@@H](N)CCSC)[C@@H](C)O)C(=O)N[C@@H](CCCNC(=N)N)C(=O)N[C@@H](CCC(=O)O)C(=O)N[C@@H](Cc1ccccc1)C(=O)N1CCC[C@H]1C(=O)N[C@@H](CCCNC(=N)N)C(=O)N[C@@H](CCCCN)C(=O)O [3102.0225] (H-MTIREFPRK-OH) | 1.6 |
| CC[C@H](C)[C@H](NC(=O)[C@H](Cc1ccc(O)cc1)NC(=O)CNC(=O)CNC(=O)[C@@H](NC(=O)[C@H](Cc1ccccc1)NC(=O)[C@H](CCCNC(=N)N)NC(=O)[C@H](C)NC(=O)[C@@H](N)CCCNC(=N)N)[C@@H](C)CC)C(=O)O [3102.0226] (H-RARFIGGYI-OH) | 0.26 |
| CC(C)C[C@H](NC(=O)[C@H](CCC(N)=O)NC(=O)CNC(=O)[C@H](CC(=O)O)NC(=O)[C@H](CCCNC(=N)N)NC(=O)[C@@H](NC(=O)[C@@H](N)[C@@H](C)O)C(C)C)C(=O)N[C@@H](CCC(=O)O)C(=O)N[C@H](C(=O)O)C(C)C [3102.0228] (H-TVRDGQLEV-OH) | 13 |
| CC[C@H](C)[C@H](NC(=O)[C@H](CC(C)C)NC(=O)[C@H](CO)NC(=O)CNC(=O)[C@@H]1CCCN1C(=O)[C@H](CCCNC(=N)N)NC(=O)[C@H](Cc1ccccc1)NC(=O)[C@@H](N)CCCCN)C(=O)N[C@@H](Cc1ccc(O)cc1)C(=O)O [3102.0230] (H-KFRPGSLIY-OH) | 0.3 |
| CSCC[C@H](NC(=O)[C@@H](N)CCCCN)C(=O)N[C@@H](CCCNC(=N)N)C(=O)N[C@@H](CCCNC(=N)N)C(=O)N[C@@H](CCC(=O)O)C(=O)N[C@@H](CCCNC(=N)N)C(=O)N[C@@H](C)C(=O)N[C@@H](C)C(=O)N[C@@H](Cc1ccc(O)cc1)C(=O)O [3102.0231] (H-KMRRERAAY-OH) | 3 |
| CSCC[C@H](N)C(=O)N[C@@H](CCCNC(=N)N)C(=O)N[C@@H](CCCNC(=N)N)C(=O)N[C@@H](CCC(=O)O)C(=O)N[C@@H](CCCNC(=N)N)C(=O)N[C@@H](C)C(=O)N[C@@H](C)C(=O)N[C@@H](Cc1ccc(O)cc1)C(=O)N[C@H](C(=O)O)C(C)C [3102.0232] (H-MRRERAAYV-OH) | 22 |
| CC(C)C[C@H](NC(=O)[C@H](CCC(=O)O)NC(=O)[C@H](CCCNC(=N)N)NC(=O)[C@H](CCCCN)NC(=O)[C@H](Cc1ccc(O)cc1)NC(=O)[C@H](Cc1ccccc1)NC(=O)[C@H](CCCCN)NC(=O)[C@@H](NC(=O)[C@@H](N)CCCCN)C(C)C)C(=O)O [3102.0235] (H-KVKFYKREL-OH) | 42 |
| CC[C@H](C)[C@H](NC(=O)[C@H](CCCNC(=N)N)NC(=O)[C@@H](NC(=O)[C@@H](N)CCCCN)[C@@H](C)O)C(=O)N[C@@H](CCCNC(=N)N)C(=O)N[C@@H](CC(N)=O)C(=O)N[C@@H](CC(C)C)C(=O)N[C@@H](CCCCN)C(=O)N[C@@H](CCCNC(=N)N)C(=O)O [3102.0236] (H-KTRIRNLKR-OH) | 6.5 |
| CC[C@H](C)[C@H](NC(=O)[C@H](CCC(N)=O)NC(=O)[C@H](CCC(=O)O)NC(=O)[C@H](CCCNC(=N)N)NC(=O)[C@H](C)NC(=O)[C@@H](N)CCCNC(=N)N)C(=O)N[C@@H](CO)C(=O)N[C@@H](CC(N)=O)C(=O)N[C@@H](CC(C)C)C(=O)O [3102.0237] (H-RAREQISNL-OH) | 2.7 |
| CC(C)C[C@H](NC(=O)[C@H](CC(=O)O)NC(=O)[C@H](CCCCN)NC(=O)[C@@H](NC(=O)[C@@H](N)CCCCN)C(C)C)C(=O)N[C@@H](Cc1ccccc1)C(=O)N[C@@H](CC(N)=O)C(=O)N[C@H](C(=O)N[C@@H](CCCCN)C(=O)O)[C@@H](C)O [3102.0238] (H-KVKDLFNTK-OH) | 38 |
| CC[C@H](C)[C@H](NC(=O)[C@@H](NC(=O)[C@@H](NC(=O)[C@H](CCCCN)NC(=O)[C@H](C)NC(=O)[C@@H](N)CCCCN)[C@@H](C)O)[C@@H](C)O)C(=O)N[C@@H](CO)C(=O)N[C@@H](CC(N)=O)C(=O)N[C@@H](Cc1ccc(O)cc1)C(=O)O [3102.0241] (H-KAKTTISNY-OH) | 24 |
| CC(C)C[C@H](NC(=O)[C@H](CC(N)=O)NC(=O)[C@@H](NC(=O)[C@H](CC(C)C)NC(=O)[C@H](CCCNC(=N)N)NC(=O)[C@H](CCC(N)=O)NC(=O)[C@@H](N)CCCCN)[C@@H](C)O)C(=O)N[C@@H](CCC(=O)O)C(=O)N[C@@H](CCCCN)C(=O)O [3102.0243] (H-KQRLTNLEK-OH) | 0.95 |
| CC[C@H](C)[C@H](NC(=O)[C@H](CCSC)NC(=O)[C@H](C)NC(=O)[C@H](C)NC(=O)[C@H](CCCNC(=N)N)NC(=O)[C@H](CC(C)C)NC(=O)[C@@H](N)[C@@H](C)O)C(=O)N[C@@H](CO)C(=O)N[C@@H](CC(C)C)C(=O)O [3102.0245] (H-TLRAAMISL-OH) | 0.71 |
| CC[C@H](C)[C@H](NC(=O)[C@H](CC(C)C)NC(=O)[C@H](CO)NC(=O)[C@@H](NC(=O)[C@H](CCCNC(=N)N)NC(=O)[C@@H](NC(=O)[C@@H](N)CCCNC(=N)N)C(C)C)[C@@H](C)CC)C(=O)N[C@@H](Cc1ccc(O)cc1)C(=O)N[C@@H](CC(C)C)C(=O)O [3102.0249] (H-RVRISLIYL-OH) | 0.092 |
| CC(C)C[C@H](NC(=O)[C@H](CO)NC(=O)[C@H](Cc1c[nH]cn1)NC(=O)[C@H](CC(C)C)NC(=O)[C@H](CCCNC(=N)N)NC(=O)[C@H](C)NC(=O)[C@H](CO)NC(=O)[C@@H](NC(=O)[C@@H](N)Cc1c[nH]cn1)[C@@H](C)O)C(=O)O [3102.0250] (H-HTSARLHSL-OH) | 4.1 |
| C[C@@H](O)[C@H](N)C(=O)N[C@H](C(=O)N[C@@H](CCCCN)C(=O)N[C@@H](CC(N)=O)C(=O)NCC(=O)N[C@@H](CCC(N)=O)C(=O)N1CCC[C@H]1C(=O)N[C@@H](CCCNC(=N)N)C(=O)N[C@@H](CCCCN)C(=O)O)[C@@H](C)O [3102.0252] (H-TTKNGQPRK-OH) | 0.23 |
| CC[C@H](C)[C@H](NC(=O)[C@H](CC(N)=O)NC(=O)[C@H](CO)NC(=O)[C@H](CCSC)NC(=O)[C@H](CC(C)C)NC(=O)[C@H](CCCCN)NC(=O)[C@@H](NC(=O)[C@@H](N)CCCNC(=N)N)[C@@H](C)O)C(=O)N[C@@H](CCCCN)C(=O)O [3102.0253] (H-RTKLMSNIK-OH) | 0.38 |
| CC[C@H](C)[C@H](NC(=O)[C@H](CCSC)NC(=O)[C@H](CCSC)NC(=O)[C@@H](NC(=O)[C@@H](N)CCCCN)[C@@H](C)O)C(=O)N[C@@H](CC(N)=O)C(=O)N1CCC[C@H]1C(=O)N[C@@H](Cc1ccccc1)C(=O)N[C@@H](CCSC)C(=O)O [3102.0254] (H-KTMMINPFM-OH) | 0.36 |
